Data reported in patent US20150160193A1, “TUMOR CELL ISOLATION/PURIFICATION PROCESS AND METHODS FOR USE THEREOF” (DIATECH ONCOLOGY, priority 2012, published 2015).
Like-named read-outs stand apart in the source and are kept apart here. *1 amine or outer side, *2 acyl side, *3 side chain or, on linkers, in order; H or OH if unused. Where a SMILES comes first, the peptide text is derived from it. Bridges are numbered along the chain shown (N, C = ends). Roman numbers before positions name the chains, in order. [ ]: non-standard residue; d: D form. Actinocin(9to1) = Cc1c2oc3c(C)ccc(C(=O)[*:1])c3nc-2c(C(=O)[*:2])c(N)c1=O; NMeV = CN[C@H](C(=O)O)C(C)C; Sar = CNCC(=O)O

Columns and labels:
[1] = system: neoplastic cells collected from spleen and abdominal tumor biopsy specimens; assay: MiCK assay, patient specific cancer cell testing (Example 10); type: cell-based, human; details: for efficacy for this patient, in words: single agents
Protocol: The experiments were conducted on neoplastic cells collected from spleen and abdominal tumor biopsy specimens from a person. The tumor specimens were of an unknown primary. The experiment consisted of using a MiCK assay, according to the present disclosure, to test the effectiveness of 37 potential anti-cancer drugs, combinations of these drugs, and various concentrations of these drugs.
Apoptotic readings greater than 5.0KU in the MiCK assay are considered to be highly sensitive and are associated with a good clinical response. […] It should be noted that the alkylating agents cyclophosphamide and ifosfamide require hepatic metabolic transformation to their active metabolite, 4HC and 4HI respectively, and therefore cannot be tested directly in vitro. For the MiCK assay their active metabolites, 4HC and 4HI respectively were used.

[2] = system: Purified breast cancer cells from 67 patient (Pt) biopsies; assay: MiCK assay of drug-induced apoptosis, breast cancer specimens; type: cell-based, human; details: for % >1: share of samples with KU >1; for % >3: share of samples with KU >3; for Mean Difference (95% CI) of KU vs Carbo: drug minus Carbo; for Mean Difference (95% CI) of KU vs Mitox: drug minus Mitox; for Mean Difference (95% CI) of KU vs Doxo: paired t-test, drug minus Doxo
Protocol: Apoptosis(KU)=(VmaxDrug Candidate Treated−VmaxControl)×60×X/(ODcontrol−ODblank)
Within 24 to 48 hours of collection, the specimen was minced, digested with 0.25% trypsin and 0.08% DNase for 1-2 hours at 37 C.°, and then filtered through a 100 micrometer cell strainer. When necessary, non-viable cells were removed by density gradient centrifugation. The cell suspension was then incubated for 30 min at 37° C. in a tissue culture flask to remove macrophages by adherence. For epithelial tumors lymphocytes were removed by 30 minute incubation with CD2 antibody conjugated magnetic beads for T lymphocytes and CD19 antibody conjugated magnetic beads for B lymphocytes. Remaining macrophages were removed, if necessary, using CD14 antibody conjugated magnetic beads. The final cell suspension was plated into a 96-well half-area plate, 120 microliter aliquot per well. The plate was incubated overnight at 37° C. with 5% carbon dioxide humidified atmosphere. 5×10^4 to 1.5×10^5 cells were seeded per well depending on the cell volume to give adequate well-bottom coverage.
Within 24 to 48 hours of collection, the specimen was treated as follows in order to purify and isolate cells from solid tumors: • Take the specimen out of the transport tube. • Put in a petri dish in 13 ml of PBS+high concentration of antibiotics (200 units/ml Penicillin+200 μg/ml streptomycin) and take measurements and picture of the specimen. […] In that case, one may make the determination to do a “pre-filtration” using sterile gauze over a 50 ml tube. Then proceed with the cell strainer filtration process referenced above. • Centrifuge the filtered cell suspension 1500 RPM 5 min • Discard the supernatant. To the pellet, add 5 ml of red blood cell lysis solution (standard NH4Cl containing lysis solution: Nh4Cl0.15M+KHCO3 10 mM+EDTA-4Na 0.1 mM, pH 7.2), incubate 2-3 min and add 5 ml of RPMI 10% FBS. • Centrifuge 5 min 1500 RPM. Resuspend the pellet in RPMI 10% FBS (1-10 ml depending on the pellet size). • Collect the second fraction in the enzyme and repeat the steps above. • Check the viability of all fractions and pool. Do a cytospin stain with Wright Giemsa to verify the cell content of the population. NOTE: this is done numerous times during the process of purification. • 3) When necessary, non-viable cells were removed by density gradient centrifugation. • Density gradient centrifugation (optiprep): first layer=2 ml cells+4.45 ml optiprep 40% in RPMI, second layer=optiprep 22.5% in RPMI, 3rd layer=0.5 ml of RPMI. Centrifuge at 2000 RPM for 20 min • Collect the viable cell layer, add 10 ml of RPMI 10% FBS, centrifuge at 1500 RPM for 5 min • Resuspend the pellet in RPMI 10% FBS (volume depends on the pellet size and on the next step required). • If mucin is present in the specimen: resuspend the pellet in 10 ml of PBS+20 mM DTT and incubate at 4° C. for 30 min to disintegrate the mucin. Wash with RPMI 1500 rpm for 5 min Resuspend the pellet in RPMI 10% FBS. • If the specimen is highly necrotic with presence of debris: Percoll 20% in HBSS, centrifuge at 800×g for 10 min • 4) The cell suspension was then incubated for 20 min at 37° C. in a tissue culture flask to remove macrophages by adherence. • The size and quantity of the flask and the volume used depends on the amount of cells.

[3] = person, tumor of unknown primary, maximum apoptotic response over the concentrations tested
[4] = KU compared per patient, % of 13 patients
[5] = kinetic units of apoptosis, mean over N patient samples (at least 9 per drug)
[6] = kinetic units of apoptosis, median over N patient samples
[7] = KU compared per patient, % of 24 patients
[8] = person, tumor of unknown primary
[9] = KU compared per patient, % of 34 patients

## O=c1[nH]cc(F)c(=O)[nH]1 [5FU, 5-fluorouracil]
[1]; [3]
  Max Resp. (KU): 0.3 KU
[2]; [4]
  5fu > Xeloda + 0.57: 2/13 (15%)
[2]; [5]
  KU Mean: 0.7 KU
[2]; [6]
  KU Median: 0.6 KU

## Nc1nc2[nH]cc(CCc3ccc(C(=O)N[C@@H](CCC(=O)O)C(=O)O)cc3)c2c(=O)[nH]1 [Alimta, pemetrexed]
[1]; [3]
  Max Resp. (KU): 0.6 KU

## O=NN(CCCl)C(=O)NC1CCCCC1 [CCNU]
[1]; [3]
  Max Resp. (KU): 0.8 KU

## N.N.O=C([O-])C1(C(=O)[O-])CCC1.[Pt+2] [Carbo, Carboplatin]
[1]; [3]
  Max Resp. (KU): 6.0 KU
[2]; [7]
  Carbo = Cisplatin +/− 0.57 and both > 1: (17%)
  Carbo > Cisplatin by more than 0.57 and Carbo > 1: (8%)
  Cisplatin and Carbo both < 1: (17%)
[2]; [5]
  KU Mean: 1.6 KU
[2]; [6]
  KU Median: 1.6 KU
[2]
  % >1: 67%
  % >3: 13%

## N.N.[Cl][Pt][Cl] [Cisplatin]
[1]; [8]
  efficacy for this patient, in words: single drug with the most efficacy
[2]; [7]
  Cisplatin > Carbo + 0.57: (58%)
[2]; [5]
  KU Mean: 2.2 KU
[2]; [6]
  KU Median: 2.3 KU
[2]; patient pairwise comparison
  Mean Difference (95% CI) of KU vs Carbo: 0.88 KU
[2]; patient pairwise comparison, listed as cisplatin
  Mean Difference (95% CI) of KU vs Carbo: APOP>carboplatin
[2]; patient pairwise comparison, drug minus Oxali
  Mean Difference (95% CI) of KU vs Oxali: 0.33 KU
[2]
  % >1: 78%
  % >3: 22%

## O=P1(N(CCCl)CCCl)NCCCO1 (stereo not shown) [Cytoxan, cyclophosphamide]
[1]; [3]
  Max Resp. (KU): 8.4 KU
[1]; [8]
  efficacy for this patient, in words: highly effective results
[2]
  Cytox = Ifosf +/− 0.57 and both > 1: (55%)
  Cytox > Ifosf by more than 0.57 and Cytox > 1: (18%)
  Cytox and Ifosf both < 1: (27%)
  KU Mean: 2.8 KU
  KU Median: 2.6 KU
  Mean Difference (95% CI) of KU vs Ifosphamide: 0.34 (−0.07 to 0.76) KU

## CN(C)/N=N/c1[nH]cnc1C(N)=O [Dacarbazine]
[1]; [3]
  Max Resp. (KU): 0.6 KU

## Cc1c2oc3c(C)ccc(C(=O)N[C@@H]4C(=O)N[C@H](C(C)C)C(=O)N5CCC[C@H]5C(=O)N(C)CC(=O)N(C)[C@@H](C(C)C)C(=O)O[C@@H]4C)c3nc-2c(C(=O)N[C@@H]2C(=O)N[C@H](C(C)C)C(=O)N3CCC[C@H]3C(=O)N(C)CC(=O)N(C)[C@@H](C(C)C)C(=O)O[C@@H]2C)c(N)c1=O [Dactinomycin] (I: T[dV]P[Sar][NMeV] / II: T[dV]P[Sar][NMeV]; ester I:1-I:C, II:1-II:C; linker I:N-II:N via Actinocin(9to1))
[1]; [3]
  Max Resp. (KU): 4.0 KU

## COc1cccc2c1C(=O)c1c(O)c3c(c(O)c1C2=O)C[C@@](O)(C(C)=O)C[C@@H]3O[C@H]1C[C@H](N)[C@H](O)[C@H](C)O1 [Danorubicin, Daunorubicin]
[1]; [3]
  Max Resp. (KU): 3.1 KU

## COc1cccc2c1C(=O)c1c(O)c3c(c(O)c1C2=O)C[C@@](O)(C(=O)CO)C[C@@H]3O[C@H]1C[C@H](N)[C@H](O)[C@H](C)O1 [Doxo, doxorubicin]
[1]; [3]
  Max Resp. (KU): 3.5 KU
[2]; KU compared per patient, % of 9 patients
  Doxo > Doxil + 0.57: 4/9 (44%)
[2]; [9]
  Doxo > Epi + 0.57: 3/34 (9%)
[2]; [5]
  KU Mean: 1.9 KU
[2]; [6]
  KU Median: 1.6 KU
[2]; patient pairwise comparison, drug minus Doxil
  Mean Difference (95% CI) of KU vs Doxil: 0.56 (−0.07 to 1.18) KU
[2]; patient pairwise comparison
  Mean Difference (95% CI) of KU vs Mitox: 0.63 KU

## COc1cccc2c1C(=O)c1c(O)c3c(c(O)c1C2=O)C[C@@](O)(C(=O)CO)C[C@@H]3O[C@H]1C[C@H](N)[C@@H](O)[C@H](C)O1 [Epi, Epirubicin]
[1]; [3]
  Max Resp. (KU): 3.8 KU
[2]; [9]
  Doxo and Epi < 1: 1/34 (3%)
  Epi = Doxo +/− 0.57 and both > 1: 22/34 (65%)
  Epi > Doxo by more than 0.57 and Epi > 1: 6/34 (18%)
[2]; [5]
  KU Mean: 2.5 KU
[2]; [6]
  KU Median: 2.1 KU
[2]; patient pairwise comparison
  Mean Difference (95% CI) of KU vs Mitox: 0.83 KU
  Mean Difference (95% CI) of KU vs Doxo: 0.37 KU
[2]; patient pairwise comparison, listed as epirubicin
  Mean Difference (95% CI) of KU vs Doxo: APOP>doxorubicin

## C=C1C[C@@H]2CC[C@@]34C[C@H]5O[C@H]6[C@@H](O3)[C@H]3O[C@H](CC[C@@H]3O[C@H]6[C@H]5O4)CC(=O)C[C@@H]3[C@@H](OC)[C@@H](C[C@H](O)CN)O[C@H]3C[C@H]3O[C@@H](CC[C@@H]1O2)C[C@@H](C)C3=C [Eribulin, eribulin]
[2]; [5]
  KU Mean: 1.0 KU
[2]; [6]
  KU Median: 1.0 KU

## Cc1ccc(NC(=O)c2ccc(CN3CCN(C)CC3)cc2)cc1Nc1nccc(-c2cccnc2)n1 [Gleevec (imatinib), imatinib]
[1]; [3]
  Max Resp. (KU): 1.5 KU

## CCc1c2c(nc3ccc(OC(=O)N4CCC(N5CCCCC5)CC4)cc13)-c1cc3c(c(=O)n1C2)COC(=O)[C@]3(O)CC [Irinotecan]
[1]; [3]
  Max Resp. (KU): 2.6 KU

## C/C(=C\c1csc(C)n1)[C@@H]1C[C@@H]2O[C@]2(C)CCC[C@H](C)[C@H](O)[C@@H](C)C(=O)C(C)(C)[C@@H](O)CC(=O)N1 [Ixabepilone, ixabepilone]
[2]; [5]
  KU Mean: 1.3 KU
[2]; [6]
  KU Median: 1.2 KU

## N[C@@H](Cc1ccc(N(CCCl)CCCl)cc1)C(=O)O [Melphalan]
[1]; [3]
  Max Resp. (KU): 5.3 KU

## O=C1c2c(O)ccc(O)c2C(=O)c2c(NCCNCCO)ccc(NCCNCCO)c21 [Mitox, mitoxantrone]
[2]; [5]
  KU Mean: 1.2 KU
[2]; [6]
  KU Median: 1.2 KU

## CNNCc1ccc(C(=O)NC(C)C)cc1 [Procarbazine]
[1]; [3]
  Max Resp. (KU): 1.3 KU

## CNC(=O)c1cc(Oc2ccc(NC(=O)Nc3ccc(Cl)c(C(F)(F)F)c3)cc2)ccn1 [Sorafenib]
[1]; [3]
  Max Resp. (KU): 3.8 KU

## CCN(CC)CCNC(=O)c1c(C)[nH]c(/C=C2\C(=O)Nc3ccc(F)cc32)c1C [Sunifinib, Sunitinib]
[1]; [3]
  Max Resp. (KU): 7.9 KU

## C#Cc1cccc(Nc2ncnc3cc(OCCOC)c(OCCOC)cc23)c1 [Tarceva]
[1]; [3]
  Max Resp. (KU): 0.7 KU

## Cn1nnc2c(C(N)=O)ncn2c1=O [Temozolomide]
[1]; [3]
  Max Resp. (KU): 1.5 KU

## CC(C)C[C@H](NC(=O)[C@H](Cc1ccccc1)NC(=O)c1cnccn1)B(O)O [Velcade]
[1]; [3]
  Max Resp. (KU): 3.8 KU

## Nc1ncn([C@@H]2O[C@H](CO)[C@@H](O)[C@H]2O)c(=O)n1 [Vidaza]
[1]; [3]
  Max Resp. (KU): 4.3 KU

## CCCCCOC(=O)Nc1nc(=O)n([C@@H]2O[C@H](C)[C@@H](O)[C@H]2O)cc1F [Xeloda, capcitabine]
[2]; [4]
  5fu and Xeloda < 1: 8/13 (62%)
  Xeloda = 5fu +/− 0.57 and both > 1: 0/13 (0%)
  Xeloda > 5fu by more than 0.57 and Xeloda > 1: 2/13 (15%)
[2]; [5]
  KU Mean: 0.7 KU
[2]; [6]
  KU Median: 0.7 KU
[2]; patient pairwise comparison, drug minus 5FU
  Mean Difference (95% CI) of KU vs 5FU: 0.26 (−0.26 to 0.77) KU

## Bleomycin
[1]
  Max Resp. (KU): 1.1 KU
